Where two headings read alike, the source gives them in different places.
Key:
[1] = cited from earlier work
ATCC 29213 (MSSA strain) = experiment: MIC by broth microdilution susceptibility testing; type: cell-based; details: Staphylococcus aureus
Experimental: (§1) Susceptibility Testing. […] The strains tested were SA 494 and ATCC 29213.
(§2) Susceptibility testing. […] The treatment groups were compared to their commercial drug counterparts, both individually and in combination. […] SA 494 is the MRSA strain, and ATCC 29213 is the MSSA strain. The results were obtained as follows:
(§3) To test the effect of the presence of one drug that may enhance the MIC of the other in combination, combination MIC studies were performed. […] The results for MIC of liposomal CFZ in 0.5×the MIC of liposomal VAN were as follows:
(§4) However, liposomal VAN+CFZ [L (VAN+CFZ)] performed much better as compared to commercial VAN+CFZ (a mixture of non-liposomal antibiotics) in MRSA 494/MSSA 29213. The L(VAN+CFZ) has more than >2-4 fold improvement of MIC as compared to VAN+CFZ. Lower the MIC, the better is the MRSA killing.

SA 494 (MRSA strain) = experiment: MIC by broth microdilution susceptibility testing; type: cell-based; details: Staphylococcus aureus
Experimental: as §1, §2, §3, §4

ATCC 29213 = experiment: Time-kill analysis in 24 well plates (CLSI); type: cell-based, Staphylococcus aureus; details: tested at 1/2×MIC, 1×MIC, 24 h, FIG. 13B
Experimental: Time kill analysis was performed in 24 well plates according to CLSI guidelines (Patel 2017. M100: Performance Standards for Antimicrobial Susceptibility Testing, 27th Edition .224). Bactericidal activity was defined as >3 log CFU/ml reduction from baseline (initial inoculum). […] Lower the MIC, the better is the MRSA killing.

MRSA 494 biofilm = experiment: Biofilm disruption, pin lid method (Calgary biofilm device); type: cell-based, Staphylococcus aureus; details: FIG. 14, FIG. 15
Experimental: The Minimum Inhibitory […] (MIC) in presence of biofilm was determined using the pin lid method or Calgary biofilm device (Barber et al., Antimicrob Agents Chemother. 58(5):2989-92, 2014; De Oliveira et al., Int J Mol Sci. 17(9), 2016). This method is used for defining the biofilm MIC vs. antibiotic or combination of antibiotics.

| MIC (ATCC 29213 (MSSA strain); MSSA 29213, Example 4 table, read-out: MIC values) [µg/mL] | MIC (ATCC 29213 (MSSA strain); strain 29213 (MSSA), broth microdilution, 24 h at 35° C., Example 1, read-out: MC Values (MIC)) [µg/mL] | MIC (SA 494 (MRSA strain); MRSA 494, Example 4 table, read-out: MIC values) [µg/mL] | MIC (SA 494 (MRSA strain); strain 494 (MRSA), broth microdilution, 24 h at 35° C., Example 1, read-out: MC Values (MIC)) [µg/mL] | Compound | log P [1] | MIC (ATCC 29213 (MSSA strain); 24 h, read-out: MC Values (MIC)) [µg/mL] | MIC (ATCC 29213 (MSSA strain); read-out: MIC values) [µg/mL] | MIC (SA 494 (MRSA strain); MRSA, 24 h, read-out: MC Values (MIC)) [µg/mL] | MIC (SA 494 (MRSA strain); MRSA, read-out: MIC values) [µg/mL] | time-kill result (ATCC 29213) | biofilm disruption (in words) (MRSA 494 biofilm) |
| --- | --- | --- | --- | --- | --- | --- | --- | --- | --- | --- | --- |
| 0.5 | 0.5 | > 64 | > 16 | Cc1nnc(SCC2=C(C(=O)O)N3C(=O)[C@@H](NC(=O)Cn4cnnn4)[C@H]3SC2)s1 [CCFZ, cefazolin] | −0.58 |  |  |  |  |  |  |
|  |  |  |  | CN[C@H](CC(C)C)C(=O)N[C@H]1C(=O)N[C@@H](CC(N)=O)C(=O)N[C@H]2C(=O)N[C@H]3C(=O)N[C@H](C(=O)N[C@H](C(=O)O)c4cc(O)cc(O)c4-c4cc3ccc4O)[C@H](O)c3ccc(c(Cl)c3)Oc3cc2cc(c3O[C@@H]2O[C@H](CO)[C@@H](O)[C@H](O)[C@H]2O[C@H]2C[C@](C)(N)[C@H](O)[C@H](C)O2)Oc2ccc(cc2Cl)[C@H]1O [CVAN, vancomycin] |  | 0.5 | 0.5 | 1 | 1 | grow above the initial inoculum at 24 h | barely showed any anti-biofilm effect |
